Experimental data: US20260215422A1, “HERBICIDAL COMPOSITIONS” (SYNGENTA CROP PROTECTION AG, priority 2022, published 2026)

Tests used:
[1] = tested on: RW478-16; assay: Additional testing of Group 12 herbicides with other HPPD inhibitor herbicides (Table 7), Colby; assay type: in vivo, Amaranthus sp. (AMAPA); conditions: for Observed Product 1-(Group 12): Group 12 herbicide alone 15.8 g/ha
Source text: (§1) When active ingredients are combined, the activity to be expected (E) for any given active ingredient combination obeys the so-called Colby Formula and can be calculated as follows (Colby, S. R., Calculating synergistic and antagonistic responses of herbicide combination, Weeds, Vol. 15, pages 20-22; 1967): • ppm=milligrams of active ingredient (a.i.) per liter • X=% action by first active ingredient using p ppm of the active ingredient • Y=% action by second active ingredient using q ppm of the active ingredient.
(§2) According to Colby, the expected action of active ingredients A+B using p+q ppm of active ingredient is represented by the following formula:
(§3) [formula] • If the action actually observed (O) is greater than the expected action E then the action of the combination is super-additive, i.e. there is a synergistic effect. In mathematical terms, synergism corresponds to a positive value for the difference of (O-E). In the case of purely complementary addition of activities (expected activity), said difference (O-E) is zero. A negative value of said difference (O-E) signals a loss of activity compared to the expected activity.
(§4) Additional testing within the scope of disclosure was performed using other HPPD inhibitor herbicides and Group 12 herbicides.

[2] = tested on: S129; assay: as above; assay type: in vivo, Amaranthus sp. (AMAPA); conditions: for Observed Product 1-(Group 12): Group 12 herbicide alone 15.8 g/ha
Source text: as §1, §2, §3, §4

[3] = tested on: Group 27 resistant AMAPA; assay: Greenhouse preemergence trial, % control at 29 days after application; assay type: in vivo, Palmer amaranth
[4] = tested on: sensitive (S-129) Amaranthus sp. (AMAPA); assay: Pre-emergent synergy test of DFF with MST + BIR (Tables 1-3), Colby; assay type: in vivo; conditions: pre-emergence, 528 h, 22 days after treatment, read-out: Activity (% control) (S-129)
Source text: as §1, §2, §3
(§5) Synergy was further tested for in sensitive (S-129) and HPPD-resistant (RW478-16) Amaranthus sp. (AMAPA) in pre-emergent tests according to the treatments in Table 1 below.
(§6) Dose responses rates were calculated for the treatments at 22 days after treatment which are provided in FIGS. 3 and 4, and further summarized in Table 2.

[5] = tested on: HPPD-resistant (RW478-16) Amaranthus sp. (AMAPA); assay: as above; assay type: in vivo; conditions: pre-emergence, 528 h, 22 days after treatment, read-out: Activity (% control) (RW478-16)
Source text: as §1, §2, §3, §5, §6

[6] = tested on: HPPD resistant AMATA; assay: Field trial of dent corn, control 34 days after application; assay type: in vivo, common waterhemp, Amaranthus rudis Sauer; conditions: 70 g ai/ha diflufenican
Protocol: Diflufenican, was already very active on HPPD-R AMAPA providing 98% control alone at 35 g ai/ha, the rate used in mixture with MST+BIR making it difficult to determine if there was synergy between the herbicides. Nevertheless, additional data regarding diflufenican and MST+BIR was obtained during field trials of dent corn.
During the field trial, HPPD resistant AMATA (common waterhemp, Amaranthus rudis Sauer) was tested as follows: • 1) 70 g ai/ha diflufenican—providing 55% control • 2) 202 g ai/ha MST+50 g ai/ha BIR—providing 30% control • 3) 70 g ai/ha diflufenican+202 g ai/ha MST+50 g ai/ha BIR—providing 92% control.
The results were collected 34 days after application. The inclusion of a Group 12 herbicide with at least one HPPD-inhibitor, specifically MST+BIR, provided surprising control of HPPD-resistant weeds.

[7] = tested on: sensitive (S-129) Amaranthus sp. (AMAPA); assay: Pre-emergent synergy test of PIC with MST + BIR (Tables 4-6), Colby; assay type: in vivo; conditions: 22 days after treatment
Source text: as §1, §2, §3, §5
(§7) Similar tests were performed with picolinafen (PIC) and mesotrione+bicyclopyrone (MST+BIR), as summarized by Table 4.

[8] = tested on: HPPD-resistant (RW478-16) Amaranthus sp. (AMAPA); assay: as above; assay type: in vivo; conditions: 22 days after treatment
Source text: as §1, §2, §3, §5, §7

[9] = (IFT 12.3) g/ha without Group 12
[10] = (MST 25.3) g/ha without Group 12
[11] = (BIR 6.3) g/ha without Group 12

CCC(Oc1ccc(F)c(C(F)(F)F)c1)C(=O)NCc1ccccc1 (centres unmarked) [BFB, beflubutamid]
Observed Product 1-(Group 12) [1]: 37%
Observed Product 1-(Group 12) [2]: 67%

O=C(Nc1ccc(F)cc1F)c1cccnc1Oc1cccc(C(F)(F)F)c1 [DFF, diflufenican]
% control of HPPD-R AMAPA ([3]; alone at 35 g ai/ha): 98%
inhibition at 1.58 g/ha ([4]; DFF 1.58 g ai/ha alone): 100%
inhibition at 2.11 g/ha ([4]; DFF 2.11 g ai/ha alone): 94%
inhibition at 3.16 g/ha ([4]; DFF 3.16 g ai/ha alone): 72%
inhibition at 7.9 g/ha ([4]; DFF 7.9 g ai/ha alone): 23%
inhibition at 15.8 g/ha ([4]; DFF 15.8 g ai/ha alone): 10%
inhibition at 31.6 g/ha ([4]; DFF 31.6 g ai/ha alone): 13%
inhibition at 1.58 g/ha ([5]; DFF 1.58 g ai/ha alone): 77%
inhibition at 2.11 g/ha ([5]; DFF 2.11 g ai/ha alone): 53%
inhibition at 3.16 g/ha ([5]; DFF 3.16 g ai/ha alone): 45%
inhibition at 7.9 g/ha ([5]; DFF 7.9 g ai/ha alone): 22%
inhibition at 15.8 g/ha ([5]; DFF 15.8 g ai/ha alone): 18%
inhibition at 31.6 g/ha ([5]; DFF 31.6 g ai/ha alone): 3%
% control of HPPD resistant AMATA [6]: 55%
Observed Product 1-(Group 12) [1]: 70%
Observed Product 1-(Group 12) [2]: 99%

O=C1C(Cl)C(CCl)CN1c1cccc(C(F)(F)F)c1 (centres unmarked) [FLU, flurochloridone]
Observed Product 1-(Group 12) [1]: 27%
Observed Product 1-(Group 12) [2]: 57%

CS(=O)(=O)c1cc(C(F)(F)F)ccc1C(=O)c1cnoc1C1CC1 [IFT, isoxaflutole]
Observed Product 2-(HPPDs) [1, 9]: 37%
Observed Product 2-(HPPDs) [2, 9]: 98%

CS(=O)(=O)c1ccc(C(=O)C2C(=O)CCCC2=O)c([N+](=O)[O-])c1 [MST, mesotrione]
Observed Product 2-(HPPDs) [1, 10]: 28%
Observed Product 2-(HPPDs) [2, 10]: 100%

O=C(Nc1ccc(F)cc1)c1cccc(Oc2cccc(C(F)(F)F)c2)n1 [PIC, picolinafen]
control of HPPD-Resistant AMAPA ([3]; Picolinafen 35 g ai/ha alone): did not adequately control
Observed Product 1-(Group 12) [1]: 28%
Observed Product 1-(Group 12) [2]: 77%
Activity (% control) (S-129) ([7]; PIC 1.58 g ai/ha alone): 10%
Activity (% control) (S-129) ([7]; PIC 2.11 g ai/ha alone): 22%
Activity (% control) (S-129) ([7]; PIC 3.16 g ai/ha alone): 17%
Activity (% control) (S-129) ([7]; PIC 7.9 g ai/ha alone): 30%
Activity (% control) (S-129) ([7]; PIC 15.8 g ai/ha alone): 53%
Activity (% control) (S-129) ([7]; PIC 31.6 g ai/ha alone): 72%
Activity (% control) (RW478-16) ([8]; PIC 1.58 g ai/ha alone): 0%
Activity (% control) (RW478-16) ([8]; PIC 2.11 g ai/ha alone): 7%
Activity (% control) (RW478-16) ([8]; PIC 3.16 g ai/ha alone): 10%
Activity (% control) (RW478-16) ([8]; PIC 7.9 g ai/ha alone): 10%
Activity (% control) (RW478-16) ([8]; PIC 15.8 g ai/ha alone): 40%
Activity (% control) (RW478-16) ([8]; PIC 31.6 g ai/ha alone): 53%

bicyclopyrone [BIR]
Observed Product 2-(HPPDs) [1, 11]: 20%
Observed Product 2-(HPPDs) [2, 11]: 57%
